Experiments:
[1] = tested on: Canis familiaris; experiment: Emetic effect in dog at 0.003 mg/kg/day, sc as infusion for 8 hrs; type: ADME, organism-based, Canis lupus familiaris; conditions: in vivo
[2] = tested on: Mus musculus; experiment: Emetic effect in DIO C57BL/6J mouse at 0.01 mg/kg, sc for 2 weeks; type: ADME, organism-based; conditions: in vivo, 336 h
[3] = Cmax in dog at 0.003 mg/kg/day, sc administered as infusion after 8 hrs; type: ADME, organism-based, Canis lupus familiaris; set-up: dose 0.003 mg/kg/day, route subcutaneous; conditions: in vivo
[4] = Tmax in Beagle dog at 0.01 mg/kg, sc; type: ADME, organism-based, Canis lupus familiaris; conditions: in vivo
[5] = Cmax in dog at 0.01 mg/kg, sc administered as bolus; type: ADME, organism-based, Canis lupus familiaris; set-up: dose 0.01 mg/kg, route subcutaneous; conditions: in vivo
[6] = Cmax in dog at 0.01 mg/kg/day, sc administered as infusion after 8 hrs; type: ADME, organism-based, Canis lupus familiaris; set-up: dose 0.01 mg/kg/day, route subcutaneous; conditions: in vivo
[7] = Cmax in Beagle dog at 0.01 mg/kg, sc; type: ADME, organism-based, Canis lupus familiaris; set-up: dose 0.01 mg/kg, route subcutaneous; conditions: in vivo
[8] = Drug uptake in DIO C57BL/6J mouse serum at 0.01 mg/kg/day, sc for 2 weeks; type: ADME, organism-based; conditions: read-out: Drug uptake
[9] = tested on: Canis familiaris; experiment: Emetic effect in Beagle dog at 0.01 mg/kg, sc measured after 1 to 24 hrs; type: organism-based, Canis lupus familiaris; conditions: in vivo
[10] = tested on: Canis familiaris; experiment: Emetic effect in Beagle dog at 0.01 mg/kg, sc measured after 1 hr; type: ADME, organism-based, Canis lupus familiaris; conditions: in vivo

- Cmax [3]: 0.18 ng/mL
- Tmax [4]: 36 min
- Cmax [5]: 2.9 ng/mL
- Cmax [6]: 0.74 ng/mL
- Cmax [7]: 2.9 ng/mL
- concentration at 336 h [8]: 0.225 ng/mL
SMILES: CC[C@](C)(NC(=O)[C@H]1C[C@H](O)CN1C(=O)[C@H](CO)NC(=O)c1c[nH]cn1)C(=O)N[C@@H](Cc1ccncc1)C(=O)N[C@@H](CC1CCCCC1)C(=O)N[C@@H](CC(C)(C)C)C(=O)N[C@@H](CC(N)=O)C(=O)N[C@@H](CCCCN)C(=O)NC(C)(C)C(=O)N[C@H](C(=O)N[C@@H](CCCNC(=N)N)C(=O)N[C@@H](CCC(N)=O)C(=O)N[C@@H](CCCNC(=N)N)C(=O)N[C@@H](CC1CCCCC1)C(N)=O)[C@@H](C)O
- Activity [1]: Toxic
- Activity [2]: Toxic
- Activity [9]: Non-Toxic
- Activity [10]: Toxic

From ChEMBL document CHEMBL4219053, “Antiobesity and emetic effects of a short-length peptide YY analog and its PEGylated and alkylated derivatives” (Bioorg Med Chem, 2018)
